The source made the active and inactive calls. The calls are words filed in the database; no cut-off is given here.
Columns and labels:
[1] = Cytotoxicity against human QSG7701 cells after 48 hrs by MTT assay; assay type: cell-based; conditions: QSG7701, 48 h
[2] = tested on: PC-3; assay: Cytotoxicity against human PC3 cells after 48 hrs by MTT assay; assay type: functional, cell-based; conditions: PC-3, 48 h
[3] = tested on: HCT-116; assay: cells; conditions: Homo sapiens, HCT-116, 48 h
Description: Cytotoxicity against human HCT116 cells after 48 hrs by MTT assay

[4] = tested on: A549; assay: cells; conditions: Homo sapiens, A549, 48 h
Description: Cytotoxicity against human A549 cells after 48 hrs by MTT assay

[5] = tested on: HepG2; assay: cells; conditions: Homo sapiens, HepG2, 48 h
Description: Cytotoxicity against human HepG2 cells after 48 hrs by MTT assay

[6] = tested on: HL-60; assay: cells; conditions: Homo sapiens, HL-60, 48 h
Description: Cytotoxicity against human HL60 cells after 48 hrs by MTT assay

[7] = tested on: K562; assay: cells; conditions: Homo sapiens, K562, 48 h
Description: Cytotoxicity against human K562 cells after 48 hrs by MTT assay

[8] = target: T1, Vascular endothelial growth factor receptor 2 (Homo sapiens, UniProt P35968); assay: Inhibition of VEGF-induced VEGFR2 phosphorylation in human HCT116 cells at 0.2 to 20 uM treated 30 mins before VEGF challenge measured after 2 hrs by immuno blot analysis; assay type: cell-based; conditions: HCT-116
[9] = target: T1, Vascular endothelial growth factor receptor 2; assay: Inhibition of human VEGFR2 preincubated for 10 mins before ATP addition measured after 45 mins
[10] = tested on: HCT-116; assay: Cell cycle arrest in human HCT116 cells assessed as accumulation at G1 phase after 48 hrs using propidium iodide by flow cytometry; assay type: functional, cell-based
[11] = tested on: HCT-116; assay: Induction of apoptosis in human HCT116 cells assessed as increase in late apoptotic cells after 48 hrs using annexin V/propidium iodide staining by flow cytometry; assay type: functional, cell-based
[12] = tested on: HCT-116; assay: Cell cycle arrest in human HCT116 cells assessed as accumulation at G2 phase at 0.5 uM after 48 hrs using propidium iodide by flow cytometry (reference value: 16.77%); assay type: functional
[13] = tested on: HCT-116; assay: Cell cycle arrest in human HCT116 cells assessed as accumulation at S phase at 0.5 uM after 48 hrs using propidium iodide by flow cytometry (reference value: 46.43%); assay type: functional
[14] = tested on: HCT-116; assay: Cell cycle arrest in human HCT116 cells assessed as accumulation at G1 phase at 2 uM after 48 hrs using propidium iodide by flow cytometry (reference value: 36.8%); assay type: functional
[15] = tested on: HCT-116; assay: Cell cycle arrest in human HCT116 cells assessed as accumulation at G2 phase at 2 uM after 48 hrs using propidium iodide by flow cytometry (reference value: 16.77%); assay type: functional
[16] = tested on: HCT-116; assay: Cell cycle arrest in human HCT116 cells assessed as accumulation at S phase at 2 uM after 48 hrs using propidium iodide by flow cytometry (reference value: 46.43%); assay type: functional
[17] = tested on: HCT-116; assay: Cell cycle arrest in human HCT116 cells assessed as accumulation at G1 phase at 8 uM after 48 hrs using propidium iodide by flow cytometry (reference value: 36.8%); assay type: functional
[18] = tested on: HCT-116; assay: Cell cycle arrest in human HCT116 cells assessed as accumulation at G2 phase at 8 uM after 48 hrs using propidium iodide by flow cytometry (reference value: 16.77%); assay type: functional
[19] = tested on: HCT-116; assay: Cell cycle arrest in human HCT116 cells assessed as accumulation at S phase at 8 uM after 48 hrs using propidium iodide by flow cytometry (reference value: 46.43%); assay type: functional
[20] = tested on: HCT-116; assay: Induction of apoptosis in human HCT116 cells at 0.5 uM after 48 hrs using annexin V/propidium iodide staining by flow cytometry (reference value: 4.17%); assay type: functional
[21] = tested on: HCT-116; assay: Induction of apoptosis in human HCT116 cells at 2 uM after 48 hrs using annexin V/propidium iodide staining by flow cytometry (reference value: 4.17%); assay type: functional
[22] = tested on: HCT-116; assay: Induction of apoptosis in human HCT116 cells at 8 uM after 48 hrs using annexin V/propidium iodide staining by flow cytometry (reference value: 4.17%); assay type: functional
[23] = tested on: HCT-116; assay: Cell cycle arrest in human HCT116 cells assessed as accumulation at G1 phase at 0.5 uM after 48 hrs using propidium iodide by flow cytometry (reference value: 36.8%); assay type: functional

T1 sequence (P35968 whole entry): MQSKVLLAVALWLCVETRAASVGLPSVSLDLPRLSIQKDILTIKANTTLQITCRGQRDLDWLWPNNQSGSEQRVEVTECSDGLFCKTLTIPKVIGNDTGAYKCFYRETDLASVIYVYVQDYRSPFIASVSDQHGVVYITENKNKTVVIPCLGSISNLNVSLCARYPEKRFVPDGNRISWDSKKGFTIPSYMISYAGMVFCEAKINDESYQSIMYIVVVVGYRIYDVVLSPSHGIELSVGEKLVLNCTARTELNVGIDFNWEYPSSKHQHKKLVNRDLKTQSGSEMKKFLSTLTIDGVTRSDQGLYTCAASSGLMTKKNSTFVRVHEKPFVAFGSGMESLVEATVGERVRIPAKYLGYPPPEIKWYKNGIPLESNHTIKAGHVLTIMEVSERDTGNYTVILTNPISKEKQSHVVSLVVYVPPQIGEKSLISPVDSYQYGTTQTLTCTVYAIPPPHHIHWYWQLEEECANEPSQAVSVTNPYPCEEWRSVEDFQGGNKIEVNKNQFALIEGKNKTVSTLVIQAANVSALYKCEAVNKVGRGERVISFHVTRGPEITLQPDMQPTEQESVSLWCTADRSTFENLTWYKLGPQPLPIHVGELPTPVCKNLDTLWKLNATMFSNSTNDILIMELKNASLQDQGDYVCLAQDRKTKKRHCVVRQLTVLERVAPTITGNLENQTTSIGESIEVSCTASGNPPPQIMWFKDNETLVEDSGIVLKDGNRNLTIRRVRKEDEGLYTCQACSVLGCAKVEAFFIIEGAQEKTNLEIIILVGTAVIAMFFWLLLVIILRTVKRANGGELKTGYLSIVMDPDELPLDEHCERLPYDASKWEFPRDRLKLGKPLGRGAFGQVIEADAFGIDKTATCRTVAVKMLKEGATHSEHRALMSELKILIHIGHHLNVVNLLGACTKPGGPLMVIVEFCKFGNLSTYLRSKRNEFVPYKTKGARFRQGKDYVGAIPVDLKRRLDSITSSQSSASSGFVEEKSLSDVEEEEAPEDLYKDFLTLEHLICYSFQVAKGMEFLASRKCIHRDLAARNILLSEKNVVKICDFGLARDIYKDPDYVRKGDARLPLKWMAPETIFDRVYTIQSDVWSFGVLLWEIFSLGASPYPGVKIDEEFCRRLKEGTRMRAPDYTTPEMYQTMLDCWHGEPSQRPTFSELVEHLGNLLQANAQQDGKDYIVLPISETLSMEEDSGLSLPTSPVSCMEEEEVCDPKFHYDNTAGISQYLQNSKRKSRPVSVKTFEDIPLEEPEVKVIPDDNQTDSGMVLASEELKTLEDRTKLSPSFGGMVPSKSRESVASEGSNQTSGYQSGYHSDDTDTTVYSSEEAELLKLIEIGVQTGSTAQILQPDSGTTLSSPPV

| IC50 [3] [µM] | IC50 [4] [µM] | IC50 [5] [µM] | IC50 [6] [µM] | IC50 [7] [µM] | Structure (SMILES) | IC50 [1] [µM] | IC50 [2] [µM] | also measured |
| --- | --- | --- | --- | --- | --- | --- | --- | --- |
| 12.4 | 16.7 | 20.2 | 45.9 | 24.1 | Cc1[nH]c(/C=C2\C(=O)Nc3cccnc32)c(C)c1C(=O)NCCN(C)C | > 50 | 47 | – |
| 18.1 | 25.4 | 38.6 | 30.2 | 18 | Cc1[nH]c(/C=C2\C(=O)Nc3ncccc32)c(C)c1C(=O)NCCN1CCCCC1 | > 50 | 25.6 | – |
| 8.2 | 11.8 | 12.6 | 32.9 | 25.3 | CCN(CC)CCNC(=O)c1ccc(/C=C2\C(=O)Nc3cccnc32)[nH]c1=O | > 50 | 30.3 | – |
| 9.1 | 12.5 | 8.6 | 34.8 | 15.7 | Cc1[nH]c(/C=C2\C(=O)Nc3ccncc32)c(C)c1C(=O)NCCN(C)C | > 50 | > 50 | inhibition [8]: Active; IC50 [9]: 0.06 µM |
| 6.1 | 18.5 | 15.4 | 15.5 | 21.9 | CCN(CC)CCNC(=O)c1c(C)[nH]c(/C=C2\C(=O)Nc3ccc(F)cc32)c1C [SUNITINIB] | > 50 | 25.1 | – |
| 5.3 | 12.6 | 17.1 | 24.7 | 19.3 | CN(C)CCNC(=O)c1ccc(/C=C2\C(=O)Nc3ccc(F)cc32)[nH]c1=O | > 50 | 25.2 | – |
| 11 | 13.9 | 16.4 | 35 | 14.8 | CCN(CC)CCNC(=O)c1c(C)[nH]c(/C=C2\C(=O)Nc3ccncc32)c1C | > 50 | > 50 | – |
| 9.2 | 21 | 18.3 | 48.8 | 19.8 | Cc1[nH]c(/C=C2\C(=O)Nc3ncccc32)c(C)c1C(=O)NCCN(C)C | > 50 | 49.5 | – |
| 9.5 | 15.2 | 18.9 | 32.7 | 26.8 | O=C1Nc2ccc(F)cc2/C1=C/c1ccc(C(=O)NCCN2CCCCC2)c(=O)[nH]1 | > 50 | 28 | – |
| 25.5 | 29.2 | > 50 | 27.8 | > 50 | Cc1[nH]c(/C=C2\C(=O)Nc3ncccc32)c(C)c1C(=O)NCCN1CCOCC1 | > 50 | > 50 | – |
| 2.3 | 6.2 | 5 | 22.7 | 13.8 | CCN(CC)CCNC(=O)c1ccc(/C=C2\C(=O)Nc3ccc(F)cc32)[nH]c1=O.Cl | > 50 | 21 | Activity [10]: Dose-dependent effect; Activity [11]: Dose-dependent effect; Activity [12]: 12.11%; Activity [13]: 42.45%; Activity [14]: 45.4%; Activity [15]: 8.61%; Activity [16]: 38.76%; Activity [17]: 81.63%; Activity [18]: 0.1%; Activity [19]: 18.27%; Activity [20]: 20.48%; Activity [21]: 28.63%; Activity [22]: 48.67%; inhibition [8]: Active; IC50 [9]: 0.015 µM; Activity [23]: 42.6% |

The next lines start with the compound.

| Structure (SMILES) | IC50 [3] [µM] | IC50 [4] [µM] | IC50 [5] [µM] | IC50 [6] [µM] | IC50 [7] [µM] | IC50 [1] [µM] | IC50 [2] [µM] | also measured |
| --- | --- | --- | --- | --- | --- | --- | --- | --- |
| O=C1Nc2cccnc2C1=Cc1c[nH]c2ccc(F)cc12 (mixture of isomers) | > 50 | > 50 | > 50 | > 50 | > 50 | > 50 | > 50 | – |
| Cc1[nH]c(/C=C2\C(=O)Nc3ncccc32)c(C)c1C(=O)N1CCN(C)CC1 | 35 | 48.2 | 37.3 | 40 | > 50 | > 50 | > 50 | – |
| O=C1Nc2ncccc2/C1=C/c1c[nH]c2cc(F)ccc12 | 22.3 | 31.1 | 15.4 | 34.1 | > 50 | > 50 | > 50 | – |
| Cc1[nH]c(/C=C2\C(=O)Nc3ccncc32)c(C)c1C(=O)N1CCN(C)CC1 | > 50 | > 50 | > 50 | > 50 | > 50 | > 50 | > 50 | – |
| Cc1[nH]c(/C=C2\C(=O)Nc3ncccc32)c(C)c1C(=O)N1CCN(CCO)CC1 | > 50 | > 50 | > 50 | > 50 | > 50 | > 50 | > 50 | – |
| CCc1cccc2c(/C=C3\C(=O)Nc4ccc(F)cc43)c[nH]c12 | 8.6 | 11 | 28.1 | 26.7 | 15.8 | > 50 | 26.4 | inhibition [8]: Active; IC50 [9]: 6.58 µM |
| O=C1Nc2ccc(F)cc2/C1=C/c1c[nH]c2cc(F)ccc12 | 28 | > 50 | > 50 | 43.1 | > 50 | > 50 | > 50 | – |
| CCc1cccc2c(C=C3C(=O)Nc4cccnc43)c[nH]c12 (mixture of isomers) | 22.3 | 32.5 | > 50 | 34.2 | > 50 | 44.8 | > 50 | – |
| O=C1Nc2ncccc2/C1=C/c1c[nH]c2ccc(F)cc12 | 17.8 | > 50 | > 50 | 48 | 30 | > 50 | > 50 | – |
| O=C1Nc2ccc(F)cc2/C1=C/c1c[nH]c2ccc(F)cc12 | 42.1 | > 50 | > 50 | > 50 | > 50 | > 50 | > 50 | – |
| CCc1cccc2c(/C=C3\C(=O)Nc4ncccc43)c[nH]c12 | 13.6 | 17.1 | 10.5 | 37.4 | 27.7 | 42.6 | > 50 | – |
| O=C1Nc2cccnc2C1=Cc1c[nH]c2cc(F)ccc12 (mixture of isomers) | > 50 | > 50 | > 50 | > 50 | > 50 | > 50 | > 50 | – |
| O=C1Nc2ccc(F)cc2/C1=C/c1ccc(C(=O)NCCN2CCOCC2)c(=O)[nH]1 | 12.8 | 22 | 35 | 38.9 | 45.1 | > 50 | 35.6 | – |
| CN(C)CCNC(=O)c1ccc(/C=C2\C(=O)Nc3ncccc32)[nH]c1=O | 4.3 | 13.7 | 27.3 | 34.3 | 21.3 | > 50 | 26 | – |
| Cc1[nH]c(/C=C2\C(=O)Nc3ccncc32)c(C)c1C(=O)N1CCN(CCO)CC1 | > 50 | > 50 | > 50 | > 50 | > 50 | > 50 | > 50 | – |

Reference: ChEMBL document CHEMBL1914337, “Synthesis and biological evaluation of 2-indolinone derivatives as potential antitumor agents” (Eur J Med Chem, 2011)
